Assay results taken from patent publication US20240043808A1, “Screenable Liver Disease Models and Methods” (INSPHERO AG, priority 2016, published 2024).
“Also recorded” adds a separate entry of the source. Where two headings read alike, the source gives them in different places.

Legend:
[1] = test system: Human liver microtissues (+Kupffer cells) with stellate cells; assay: Inhibition of fibrosis progression, immunohistochemical staining of collagen I; assay type: cell-based; conditions: 7 days treatment, stellate cell comprising microtissues, in presence of TGF-β1
From the text: FIG. 6: Therapeutic effect of inhibition of pro-fibrotic effector pathways (TGF-βR, TK-R) was confirmed in triple co-culture liver MTs. Human liver MTs prepared form primary human hepatocytes, primary human Kupffer cells and primary human stellate cells where treated with TGF-β1 alone, or in combination with undisclosed inhibitors of i) TGF-β1 receptor, ii) ALK5, and iii) Tyrosine Kinase receptors.
Human liver microtissues (+Kupffer cells) without stellate cells and with either a stellate cell line or primary human stellate cells were treated with a fibrosis inducer (TGF-β1) and in combination with an undisclosed fibrosis inhibitor. […] Even more pronounced is the difference between TGF-β1 treated stellate cell comprising microtissues and TGF-β1/inhibitor treated cultures.

[2] = test system: triple/co-cultured (HepaRG THP1/hTERT-HSC) liver MT; assay: MTT viability of liver MT stimulated with inflammatory and pro-fibrotic stimuli; assay type: cell-based, human; conditions: co-cultured microtissues, 14 days of treatment
[3] = test system: mono-cultured (HepaRG) and triple/co-cultured (HepaRG THP1/hTERT-HSC) liver MT; assay: Gene expression of fibrotic markers and cytokines in liver MT exposed to LPS, TNF-α and TGF-β1; assay type: cell-based, human; conditions: for IL-6 gene induction: HepaRG monocultures
From the text: Induction of fibrosis biomarkers, Collagen I and IV upon treatment with inflammation-stimuli LPS or TNF-α and pro-fibrotic TGF-β1 signaling molecule. […] Actin was used as reference gene for each sample. ND: no-detected values. *; P≤0.05.
In order to assess the responsiveness towards prototypic inflammatory stimuli and pro-fibrotic stimuli on a gene-expression level, mono-cultured (HepaRG) and triple/co-cultured (HepaRG THP1/hTERT-HSC) liver MT were stimulated with inflammatory inducers (LPS or TNF-α) and the pro-fibrotic cytokine TGF-β1 to assess the cellular responses. Significant differences in the responses of the two types of MT were observed (FIG. 4). […] For example, mRNA of collagen I was only detected in the co-culture system, but not in the monocultures.

liver microtissues [4] = assay: Lipid loading of liver microtissues, nile-red staining of lipid accumulation (steatosis); assay type: cell-based; conditions: for lipid accumulation in microtissues: increasing concentrations of free fatty acid, nile-red staining
Method: FIG. 3A(1): Induction of liver-disease phenotype “steatosis” as determined by lipid accumulation. […] Images are depicted as maximal intensity projections.
FIG. 3A (2): Lipid accumulation in dependency of increasing concentrations of PA, OA or a combination thereof in a molar ratio of 2:1. The total amount of FFA was identical among the groups at a given concentration.
(§1) • Dissolve FFA-free BSA at RT for 1h in H2O for desired stock solution concentration • Dissolve desired amount of OA-Na in 1 mL 0.1 M NaOH-->at 70° C. • Dissolve desired amount of PA-Na 1 mL 0.1 M NaOH-->at 70° • Keep the FFAs on 70° C., while the BSA is placed on 37° C. • Mix FFA with BSA with a magnetic stirrer (for 30 min) • Dilute BSA with 0.1 M NaOH->vehicle control • Cool down to RT, sterile filter, aliquot and freeze. • For a final fatty acid (FA) solution dilute master stock in medium. • Replace medium of liver microtissues with FA-containing medium and incubate 2-7 days.

[5] = test system: liver MT triple-culture (hepatocyte+inflammatory cells+stellate cells); assay: Pro-fibrotic gene expression in liver MT triple-culture treated with pro-fibrotic compounds; conditions: co-cultured microtissues, 14 days
Method: MT mRNA was extracted using TRIzol conventional procedure and fold induction were calculated as 2^(−ΔΔCT) for each sample and negative control and expressed as mean fold induction±S.E.M. of three replicates with six MTs each. Actin was used as reference gene for each sample.

[6] = test system: liver MT triple-culture (hepatocyte+inflammatory cells+stellate cells); assay: Viability of liver MT triple-culture treated with pro-fibrotic compounds; conditions: co-cultured microtissues, exposure over 14 days
[7] = test system: liver endothelial cells (LEC); conditions: 5 days treatment, sub-toxic doses, LEC-coated microtissues
From the text: FIG. 7: Assessment of LEC-specific toxicity.
Spheroidal liver microtissues containing hepatocytes and Kupffer cells were coated with liver endothelial cells (LEC) and subjected to 5 days treatment with sub-toxic doses of Acetaminophen (APAP), Cyclophosphamide and Monocrotaline (FIG. 7). After the treatment, microtissues were collected, formalin fixed and paraffin embedded, sliced and stained by immunohistochemistry for the LEC-marker CD31.

liver microtissues [8] = assay: ATP measurement after exposure of liver microtissues to free fatty acids; assay type: cell-based; conditions: increasing concentrations of FFA for 3-14 days; control BSA
Method: FIG. 3A(3): ATP measurements from identical groups after exposure to increasing concentrations of FFA for 3-14 days.
as §1

“TGF-β1: pro-fibrotic cytokine, fibrosis inducer” was tested, and the “fibrotic phenotype, collagen I deposition” value [1] was “severe fibrotic phenotype with collagen deposition”, the cellular viability [2] was “decreased viability” and the IL-6 gene induction [3] was “did not induce”. For the same compound, the IL-6 gene expression ([3]; co-cultures) was “observed in co-cultures”.
In the case of CCCCCCCC/C=C\CCCCCCCC(=O)O [OA, Oleate], the “steatosis phenotype (lipid droplets in hepatocytes)” value (liver microtissues [4]; FIG. 3A1) is reported as “small lipid droplets (microvesicular steatosis)”.
With CC(=N)S [TAA, Thiocetamide] the “transcriptional induction of collagen I, collagen IV, fibronectin I and CD44” value [5] was “greatly enhanced; also recorded: dose-dependent transcriptional induction” and the MT viability [6] was “Dose-dependent loss of viability or metabolic activity; also recorded: dose-dependent decrease”.
In the case of TNF-α, the cellular viability [2] is reported as “increased cellular viability” and the IL-6 gene induction [3] is reported as “strongly responsive”.
C[C@H]1C(=O)O[C@@H]2CCN3CC=C(COC(=O)[C@](C)(O)[C@]1(C)O)[C@H]23 [monocrotalin, Monocrotaline] was tested, and the “LEC-marker CD31 (immunohistochemistry)” value [7] was “heavily reduced or completely absent” and the “LEC-marker CD31 (immunohistochemistry)” value ([7]; listed as Monocrotaline) was “reduced LEC-presence”.
O=P1(N(CCCl)CCCl)NCCCO1 (centres unmarked) [cyclosphosphamide, Cyclophosphamide] was tested, and the “LEC-marker CD31 (immunohistochemistry)” value [7] was “heavily reduced or completely absent” and the “LEC-marker CD31 (immunohistochemistry)” value ([7]; listed as Cyclosphosphamide) was “reduced LEC-presence”.
With CCCCCCCCCCCCCCCC(=O)O [PA, palmitic acid] the “steatosis phenotype (lipid droplets in hepatocytes)” value (liver microtissues [4]) was “rather macrovesicular phenotype”, the “lipid accumulation in microtissues” value (liver microtissues [4]) was “reduced lipid incorporation at concentrations higher than PA3” and the “lipid accumulation in microtissues” value (liver microtissues [4]; listed as Palmitate) was “induced lipid accumulation”. For the same compound, the ATP (liver microtissues [8]) was “decreased values in microtissues exposed to PA4 and higher”.
